Laboratory results as given in the kinase profiling compilation of Christmann-Franck et al. (2016).
Where “and” joins values, the source holds several entries; their conditions need not be identical. Identical values can stand only once.

The compounds below were run against EPHA6 (human) (UniProt Q9UF33) (assay: radiometric filter-binding kinase assay, Kinase HotSpot). Settings: compound 0.5 µM; ATP 10 µM.
Sequence of EPHA6 (human) (Q9UF33 whole entry, looked up): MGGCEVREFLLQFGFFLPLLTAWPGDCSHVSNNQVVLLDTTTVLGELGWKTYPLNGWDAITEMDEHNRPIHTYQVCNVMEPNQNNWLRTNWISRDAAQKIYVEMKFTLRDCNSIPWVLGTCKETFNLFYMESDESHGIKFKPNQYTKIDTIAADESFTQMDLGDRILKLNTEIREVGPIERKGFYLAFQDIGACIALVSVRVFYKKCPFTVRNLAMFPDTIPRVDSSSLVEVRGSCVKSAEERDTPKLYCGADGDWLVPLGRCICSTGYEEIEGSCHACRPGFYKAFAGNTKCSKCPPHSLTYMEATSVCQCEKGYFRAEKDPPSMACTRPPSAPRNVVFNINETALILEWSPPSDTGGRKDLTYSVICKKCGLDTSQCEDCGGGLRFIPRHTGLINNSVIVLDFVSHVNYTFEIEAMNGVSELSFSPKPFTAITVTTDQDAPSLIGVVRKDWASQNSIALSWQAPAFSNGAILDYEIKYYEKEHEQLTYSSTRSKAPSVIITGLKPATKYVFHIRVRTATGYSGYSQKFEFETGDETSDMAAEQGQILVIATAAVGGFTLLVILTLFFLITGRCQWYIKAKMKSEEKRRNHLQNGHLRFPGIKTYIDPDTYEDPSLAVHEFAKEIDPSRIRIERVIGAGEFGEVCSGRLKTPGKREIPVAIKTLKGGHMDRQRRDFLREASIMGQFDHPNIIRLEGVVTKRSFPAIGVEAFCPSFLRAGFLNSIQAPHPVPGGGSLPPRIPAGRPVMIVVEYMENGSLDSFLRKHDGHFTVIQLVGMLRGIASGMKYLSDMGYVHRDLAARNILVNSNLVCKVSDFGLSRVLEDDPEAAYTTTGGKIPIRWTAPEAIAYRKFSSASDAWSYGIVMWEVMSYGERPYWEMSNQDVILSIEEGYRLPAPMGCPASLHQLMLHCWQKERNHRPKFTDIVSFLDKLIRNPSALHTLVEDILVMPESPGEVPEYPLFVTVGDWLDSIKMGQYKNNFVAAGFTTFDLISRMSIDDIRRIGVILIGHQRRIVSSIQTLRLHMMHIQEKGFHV

Structure (SMILES) | residual activity
CCc1nc(-c2ccc(OC)cc2)[nH]c1-c1ccncc1 | 104%
O=c1c(-c2ccc(F)cc2)c(-c2ccncc2)[nH]n1-c1ccc(Cl)cc1 | 57%
Cn1cc(/C=C2\C(=O)Nc3ccc(S(N)(=O)=O)cc32)c2ccccc21 | 30.2%
O=C1NC(=O)c2cc(Nc3ccc(F)cc3)c(Nc3ccc(F)cc3)cc21 | 66.8%

The compounds below were run against STK38 (human) (UniProt Q15208) in the same assay as above. Settings: compound 0.5 µM; ATP 10 µM.
Sequence of STK38 (human) (Q15208 whole entry, looked up): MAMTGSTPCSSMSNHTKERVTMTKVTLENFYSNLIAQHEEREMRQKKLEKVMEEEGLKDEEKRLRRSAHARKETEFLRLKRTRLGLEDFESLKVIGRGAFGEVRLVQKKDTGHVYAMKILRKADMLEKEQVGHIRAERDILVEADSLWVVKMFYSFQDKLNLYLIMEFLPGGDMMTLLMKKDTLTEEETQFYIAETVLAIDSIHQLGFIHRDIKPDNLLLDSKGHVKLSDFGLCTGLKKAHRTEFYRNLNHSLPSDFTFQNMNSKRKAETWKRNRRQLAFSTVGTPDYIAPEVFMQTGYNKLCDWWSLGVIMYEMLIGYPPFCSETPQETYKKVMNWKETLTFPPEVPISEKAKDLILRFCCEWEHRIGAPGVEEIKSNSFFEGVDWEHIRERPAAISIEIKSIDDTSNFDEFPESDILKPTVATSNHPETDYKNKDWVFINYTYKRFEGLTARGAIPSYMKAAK

Structure (SMILES) | residual activity
CCc1nc(-c2ccc(OC)cc2)[nH]c1-c1ccncc1 | 102%
O=c1c(-c2ccc(F)cc2)c(-c2ccncc2)[nH]n1-c1ccc(Cl)cc1 | 93.7%
Cn1cc(/C=C2\C(=O)Nc3ccc(S(N)(=O)=O)cc32)c2ccccc21 | 53.1%
O=C1NC(=O)c2cc(Nc3ccc(F)cc3)c(Nc3ccc(F)cc3)cc21 | 85.5%

The compounds below were run against ULK3 (human) (UniProt Q6PHR2) in the same assay as above. Settings: compound 0.5 µM; ATP 10 µM.
Sequence of ULK3 (human) (Q6PHR2 whole entry, looked up): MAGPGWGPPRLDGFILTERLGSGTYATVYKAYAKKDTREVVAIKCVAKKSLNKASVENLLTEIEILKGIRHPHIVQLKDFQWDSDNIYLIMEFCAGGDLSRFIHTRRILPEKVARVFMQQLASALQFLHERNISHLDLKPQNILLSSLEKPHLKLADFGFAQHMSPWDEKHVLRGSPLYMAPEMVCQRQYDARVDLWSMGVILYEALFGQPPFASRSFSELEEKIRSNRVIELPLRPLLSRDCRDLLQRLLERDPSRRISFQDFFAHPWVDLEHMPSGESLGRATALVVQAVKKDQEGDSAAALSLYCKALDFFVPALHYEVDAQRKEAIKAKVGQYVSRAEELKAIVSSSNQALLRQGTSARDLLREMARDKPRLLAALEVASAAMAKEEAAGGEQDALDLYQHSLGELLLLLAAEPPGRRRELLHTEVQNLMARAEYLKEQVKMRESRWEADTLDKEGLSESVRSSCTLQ

Structure (SMILES) | residual activity
CCc1nc(-c2ccc(OC)cc2)[nH]c1-c1ccncc1 | 83.4%
O=c1c(-c2ccc(F)cc2)c(-c2ccncc2)[nH]n1-c1ccc(Cl)cc1 | 94.3%
Cn1cc(/C=C2\C(=O)Nc3ccc(S(N)(=O)=O)cc32)c2ccccc21 | 15.8%
O=C1NC(=O)c2cc(Nc3ccc(F)cc3)c(Nc3ccc(F)cc3)cc21 | 96.3%

What follows are compounds tested against AXL (human) (UniProt P30530) in the same assay as above. Settings: compound 0.5 µM; ATP 10 µM.
Sequence of AXL (human) (P30530 whole entry, looked up): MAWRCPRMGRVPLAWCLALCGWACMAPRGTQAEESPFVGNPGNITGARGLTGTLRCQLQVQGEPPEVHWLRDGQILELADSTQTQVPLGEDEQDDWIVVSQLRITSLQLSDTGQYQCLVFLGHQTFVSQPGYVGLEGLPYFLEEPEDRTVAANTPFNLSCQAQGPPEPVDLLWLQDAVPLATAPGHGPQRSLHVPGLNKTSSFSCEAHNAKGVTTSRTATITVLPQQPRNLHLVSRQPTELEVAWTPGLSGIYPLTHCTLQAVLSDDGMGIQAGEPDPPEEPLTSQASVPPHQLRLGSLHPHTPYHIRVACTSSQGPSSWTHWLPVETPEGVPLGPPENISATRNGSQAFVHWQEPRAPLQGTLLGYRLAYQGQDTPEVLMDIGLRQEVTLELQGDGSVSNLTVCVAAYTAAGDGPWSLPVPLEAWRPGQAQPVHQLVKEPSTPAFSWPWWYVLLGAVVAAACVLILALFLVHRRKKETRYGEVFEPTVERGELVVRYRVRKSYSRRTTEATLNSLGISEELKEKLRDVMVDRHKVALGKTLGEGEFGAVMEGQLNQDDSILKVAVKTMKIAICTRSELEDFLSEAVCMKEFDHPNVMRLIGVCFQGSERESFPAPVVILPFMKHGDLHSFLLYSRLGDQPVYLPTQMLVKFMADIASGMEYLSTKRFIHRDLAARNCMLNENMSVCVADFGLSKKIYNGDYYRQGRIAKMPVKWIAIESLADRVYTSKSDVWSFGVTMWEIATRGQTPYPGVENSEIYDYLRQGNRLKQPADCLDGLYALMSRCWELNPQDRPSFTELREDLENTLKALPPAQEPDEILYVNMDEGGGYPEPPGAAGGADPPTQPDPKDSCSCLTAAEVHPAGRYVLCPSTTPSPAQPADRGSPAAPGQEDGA

Structure (SMILES) | residual activity
CCc1nc(-c2ccc(OC)cc2)[nH]c1-c1ccncc1 | 99.9%
O=c1c(-c2ccc(F)cc2)c(-c2ccncc2)[nH]n1-c1ccc(Cl)cc1 | 113%
Cn1cc(/C=C2\C(=O)Nc3ccc(S(N)(=O)=O)cc32)c2ccccc21 | 49.2%
O=C1NC(=O)c2cc(Nc3ccc(F)cc3)c(Nc3ccc(F)cc3)cc21 | 104%

Each compound was assayed against MAP4K5 (human) (UniProt Q9Y4K4) in the same assay as above. Settings: compound 0.5 µM; ATP 10 µM.

Structure (SMILES) | residual activity
CCc1nc(-c2ccc(OC)cc2)[nH]c1-c1ccncc1 | 106%
O=c1c(-c2ccc(F)cc2)c(-c2ccncc2)[nH]n1-c1ccc(Cl)cc1 | 83.1%
Cn1cc(/C=C2\C(=O)Nc3ccc(S(N)(=O)=O)cc32)c2ccccc21 | 13.4%
O=C1NC(=O)c2cc(Nc3ccc(F)cc3)c(Nc3ccc(F)cc3)cc21 | 89.5%

Each compound was assayed against PRKG1 (human) (UniProt Q13976) in the same assay as above. Settings: compound 0.5 µM; ATP 10 µM.
Sequence of PRKG1 (human) (Q13976 whole entry, looked up): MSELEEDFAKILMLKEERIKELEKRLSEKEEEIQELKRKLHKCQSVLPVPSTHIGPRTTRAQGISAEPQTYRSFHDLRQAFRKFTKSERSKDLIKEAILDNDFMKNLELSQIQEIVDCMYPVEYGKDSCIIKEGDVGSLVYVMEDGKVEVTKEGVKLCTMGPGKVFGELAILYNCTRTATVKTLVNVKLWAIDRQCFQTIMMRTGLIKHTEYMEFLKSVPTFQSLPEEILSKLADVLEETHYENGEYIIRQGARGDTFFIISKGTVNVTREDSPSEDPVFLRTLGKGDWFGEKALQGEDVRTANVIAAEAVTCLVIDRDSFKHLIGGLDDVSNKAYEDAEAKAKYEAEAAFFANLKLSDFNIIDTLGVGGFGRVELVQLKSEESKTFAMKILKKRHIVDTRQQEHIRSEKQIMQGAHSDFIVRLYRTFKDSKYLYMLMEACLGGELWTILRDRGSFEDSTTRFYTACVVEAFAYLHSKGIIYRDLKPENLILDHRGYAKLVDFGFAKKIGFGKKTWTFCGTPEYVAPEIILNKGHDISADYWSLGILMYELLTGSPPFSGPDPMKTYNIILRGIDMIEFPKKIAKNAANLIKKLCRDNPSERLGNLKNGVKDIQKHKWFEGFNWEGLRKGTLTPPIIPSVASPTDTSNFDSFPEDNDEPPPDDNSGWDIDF

Structure (SMILES) | residual activity
CCc1nc(-c2ccc(OC)cc2)[nH]c1-c1ccncc1 | 81% and 91.2%
O=c1c(-c2ccc(F)cc2)c(-c2ccncc2)[nH]n1-c1ccc(Cl)cc1 | 106% and 95.6%
Cn1cc(/C=C2\C(=O)Nc3ccc(S(N)(=O)=O)cc32)c2ccccc21 | 81.1% and 87.2%
O=C1NC(=O)c2cc(Nc3ccc(F)cc3)c(Nc3ccc(F)cc3)cc21 | 103% and 94.3%

What follows are compounds tested against MAPK14 (human) (UniProt Q16539) in the same assay as above. Settings: compound 0.5 µM; ATP 10 µM.
Sequence of MAPK14 (human) (Q16539 whole entry, looked up): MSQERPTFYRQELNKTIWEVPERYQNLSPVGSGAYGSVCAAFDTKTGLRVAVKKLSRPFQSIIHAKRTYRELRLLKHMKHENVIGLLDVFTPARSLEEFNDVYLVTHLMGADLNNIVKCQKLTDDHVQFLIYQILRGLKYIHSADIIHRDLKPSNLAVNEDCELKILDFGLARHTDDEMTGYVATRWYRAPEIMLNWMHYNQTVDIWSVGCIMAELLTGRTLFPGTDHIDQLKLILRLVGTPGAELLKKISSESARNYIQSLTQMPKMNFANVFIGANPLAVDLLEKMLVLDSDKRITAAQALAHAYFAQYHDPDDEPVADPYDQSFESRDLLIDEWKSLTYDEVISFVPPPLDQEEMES

Structure (SMILES) | residual activity
CCc1nc(-c2ccc(OC)cc2)[nH]c1-c1ccncc1 | 113%
O=c1c(-c2ccc(F)cc2)c(-c2ccncc2)[nH]n1-c1ccc(Cl)cc1 | 11.2%
Cn1cc(/C=C2\C(=O)Nc3ccc(S(N)(=O)=O)cc32)c2ccccc21 | 123%
O=C1NC(=O)c2cc(Nc3ccc(F)cc3)c(Nc3ccc(F)cc3)cc21 | 88.3%

These compounds were tested against RAF1 (human) (UniProt P04049) in the same assay as above. Settings: compound 0.5 µM; ATP 10 µM.
Sequence of RAF1 (human) (P04049 whole entry, looked up): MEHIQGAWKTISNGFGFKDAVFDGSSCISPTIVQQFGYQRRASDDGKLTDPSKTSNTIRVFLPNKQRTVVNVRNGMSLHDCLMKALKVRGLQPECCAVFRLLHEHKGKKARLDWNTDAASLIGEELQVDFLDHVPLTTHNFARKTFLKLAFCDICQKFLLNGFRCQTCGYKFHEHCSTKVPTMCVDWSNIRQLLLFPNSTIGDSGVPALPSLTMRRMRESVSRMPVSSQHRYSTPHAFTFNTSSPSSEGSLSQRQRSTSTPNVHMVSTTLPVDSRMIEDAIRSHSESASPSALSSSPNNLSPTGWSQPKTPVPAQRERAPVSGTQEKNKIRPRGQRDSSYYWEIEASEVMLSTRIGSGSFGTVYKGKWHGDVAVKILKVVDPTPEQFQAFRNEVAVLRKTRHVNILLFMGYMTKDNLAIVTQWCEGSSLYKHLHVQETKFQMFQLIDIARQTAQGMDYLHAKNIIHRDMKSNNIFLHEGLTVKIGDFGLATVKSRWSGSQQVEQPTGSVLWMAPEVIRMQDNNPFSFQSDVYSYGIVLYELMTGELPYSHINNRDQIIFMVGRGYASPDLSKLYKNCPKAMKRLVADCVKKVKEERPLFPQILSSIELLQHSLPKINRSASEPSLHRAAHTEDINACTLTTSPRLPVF

Structure (SMILES) | residual activity
CCc1nc(-c2ccc(OC)cc2)[nH]c1-c1ccncc1 | 93.4%
O=c1c(-c2ccc(F)cc2)c(-c2ccncc2)[nH]n1-c1ccc(Cl)cc1 | 61.4%
Cn1cc(/C=C2\C(=O)Nc3ccc(S(N)(=O)=O)cc32)c2ccccc21 | 102%
O=C1NC(=O)c2cc(Nc3ccc(F)cc3)c(Nc3ccc(F)cc3)cc21 | 81.9%

What follows are compounds tested against KDR (human) (UniProt P35968) in the same assay as above. Settings: compound 0.5 µM; ATP 10 µM.

Structure (SMILES) | residual activity
CCc1nc(-c2ccc(OC)cc2)[nH]c1-c1ccncc1 | 103%
O=c1c(-c2ccc(F)cc2)c(-c2ccncc2)[nH]n1-c1ccc(Cl)cc1 | 90.6%
Cn1cc(/C=C2\C(=O)Nc3ccc(S(N)(=O)=O)cc32)c2ccccc21 | 74.3%
O=C1NC(=O)c2cc(Nc3ccc(F)cc3)c(Nc3ccc(F)cc3)cc21 | 97.9%

The compounds below were run against CDK9 CCNT1 (human) (UniProt P50750+O60563) in the same assay as above. Settings: compound 0.5 µM; ATP 10 µM.

Structure (SMILES) | residual activity
CCc1nc(-c2ccc(OC)cc2)[nH]c1-c1ccncc1 | 88.5%
O=c1c(-c2ccc(F)cc2)c(-c2ccncc2)[nH]n1-c1ccc(Cl)cc1 | 101%
Cn1cc(/C=C2\C(=O)Nc3ccc(S(N)(=O)=O)cc32)c2ccccc21 | 65%
O=C1NC(=O)c2cc(Nc3ccc(F)cc3)c(Nc3ccc(F)cc3)cc21 | 95.4%

What follows are compounds tested against DYRK1B (human) (UniProt Q9Y463) in the same assay as above. Settings: compound 0.5 µM; ATP 10 µM.

Structure (SMILES) | residual activity
CCc1nc(-c2ccc(OC)cc2)[nH]c1-c1ccncc1 | 106%
